Assay results from publication PMC4171606, “A novel copper(I) complex induces ER-stress-mediated apoptosis and sensitizes B-acute lymphoblastic leukemia cells to chemotherapeutic agents” (Oncotarget, 2014).

What was measured:
[1] = tested on: Blast cells from B-ALL patients; assay: MTT growth inhibition on primary cultures, 24 h; type: cell-based, human; details: B-acute lymphoblastic leukemia patients primary cultures
Procedure: CP growth inhibitory activity was measured on primary cultures derived from pediatric patients affected by B-acute lymphoblastic leukemia. […] In particular, in resting and in PHA-stimulated PBMC, and in CD19^+ cells GI50 was higher than 10 μM confirming that CP preferentially affects leukemia cells.
FIGURE 6 CP effects on B-ALL primary cultures (A) Blast cells from six B-ALL patients were incubated for 24 h with different concentrations of CP. For the sake of comparison CD19^+ cells from peripheral blood of healthy donors, and PBMC were also incubated with CP in the presence or absence of PHA. Cell viability were assayed by MTT analysis. Data are represented as mean ± S.E.M of four independent experiments. […] Cell viability was evaluated on the whole population by flow cytometry after staining the cells with Annexin-V-FITC and PI. are represented as mean ± S.E.M of 3 independent experiments. […]
The human leukemia cell lines RS 4;11, SEM, REH, RCH-ACV, MHH-CALL2, Jurkat, CCRF-CEM, HSB2, HL-60, K562, THP-1, MV4;11 were purchased from the American Type Culture Collection. […] The cytotoxic activity of CP was determined using a standard 3-[4,5-dimethylthiazol-2-yl]-2,5-diphenyltetrazodium bromide (MTT) based colorimetric assay (Sigma-Aldrich, Italy). […] After different times, cell survival was determined by the addition of an MTT solution as previously described. […]

[2] = tested on: 26S proteasome semipurified from RS4;11 cells, chymotrypsin like (CT) activity; assay: Proteasome activity on semipurified cell extract (fluorogenic substrate); type: biochemical, human; details: RS4;11 extract, 60 min at 37 °C, cell-free
Description: (§1) The 26S proteasome is a multicatalytic protease responsible for the regulated intracellular protein degradation. Its function is mediated by three main catalytic activities i) chymotrypsin like (CT) ii) Trypsin-like (T) and iii) peptidyl glutamyl peptide hydrolyzing (PGPH). To evaluate the effect of CP on the proteasome activity in leukemia cells, we tested increasing concentrations of the compound on semipurified 26S proteasome extract from RS4;11 and SEM cells, and measured the functioning of each individual proteolytic activity under cell-free condition.
(§2) FIGURE 3 CP treatment affects Ubiquitin Proteasome System (UPS) 26S proteasome (100 μg) semipurified from (A) SEM and (B) RS4;11 cells was incubated for 60 min at 37 °C with CP at different concentrations. Chymotrypsin (CT), trypsin (T) and peptidyl glutamyl peptide hydrolyzing (PGPH) catalytic activity were measured fluorimetrically (excitation 370, nm emission 460) by following the release of free AMC from synthetic substrates N-Suc-Leu-Leu-Val-Tyr-AMC, Boc-Gln-Ala-Arg-AMC and Z-Leu-Leu-Glu-AMC, specific for CT, T and PGPH activity, respectively. (C) Cells were incubated with CP 2.5 μM for the indicated times and then western blot analyses were performed to evaluate Ubiquitin accumulation.
(§3) RS4;11 and SEM cells were homogenized in a lysis buffer (50 mM Tris-HCl, pH 7.5, 250 mM sucrose, 5 mM MgCl2, 1 mM DTT, 0.5 mM EDTA) and ultracentrifuged for 2 h at 300,000 g. Total protein content was estimated with BioRad protein assay (BioRad) and 100 μg of protein aliquots were incubated for 60 min at 37°C with CP at different concentrations. Afterwards, fluorogenic proteasome substrates (N-Suc-Leu-Leu-Val-Tyr-7-amido-4-methylcoumarin (AMC) for chymotripsin (CT), Boc-Gln-Ala-Arg-AMC for tripsin (T) and Z-Leu-Leu-Glu-AMC for peptidyl glutamyl peptide hydrolyzing (PGPH) were added and the substrate hydrolysis was measured after 30 min by monitoring the release of Tyr-7-amido-4-methylcoumarin (AMC) using a Varian Cary Eclipse (Varian) spectrofluorometer (excitation at 370 nm, emission at 460 nm).

[3] = tested on: 26S proteasome semipurified from SEM cells, chymotrypsin like (CT) activity; assay: as above; type: biochemical, human; details: 60 min at 37 °C, cell-free
Description: as §1, §2, §3

[4] = tested on: 26S proteasome semipurified from RS4;11 cells, Trypsin-like (T) activity; assay: as above; type: biochemical, human; details: RS4;11 extract, 60 min at 37 °C, cell-free
Description: as §1, §2, §3

[5] = tested on: 26S proteasome semipurified from SEM cells, Trypsin-like (T) activity; assay: as above; type: biochemical, human; details: 60 min at 37 °C, cell-free
Description: as §1, §2, §3

[6] = tested on: 26S proteasome semipurified from SEM cells, peptidyl glutamyl peptide hydrolyzing (PGPH) activity; assay: as above; type: biochemical, human; details: 60 min at 37 °C, cell-free
Description: as §1, §2, §3

[7] = tested on: 26S proteasome semipurified from RS4;11 cells, peptidyl glutamyl peptide hydrolyzing (PGPH) activity; assay: as above; type: biochemical, human; details: RS4;11 extract, 60 min at 37 °C, cell-free
Description: as §1, §2, §3

F[P-](F)(F)(F)(F)F.OCP(CO)CO.OCP(CO)CO.OCP(CO)CO.OCP(CO)CO.[Cu+] [CP, [Cu(thp)4][PF6]] showed a GI50 [1] of 2.3 µM, an IC50 [2] of about 18 µM and an IC50 [3] of about 15 µM. It also gave an IC50 [4] of about 11 µM, an IC50 [5] of about 12 µM and an IC50 [6] of about 16 µM. The IC50 [7] was about 10 µM.
